# Where two headings read alike, the source gives them in different places.
# Assays:
# GPR37 [1] = target: T1, GPR37 (Homo sapiens, UniProt O15354); experiment: Ca2+ imaging (Fura-2AM) in HEK293 cells transfected with human GPR37 cDNA; type: cell-based; details: for effect on NPD1-induced iCa2+ increase: NPD1 30 nM, PTX 1 μg/mL 16 h before, thapsigargin 1 μM 3 min, EGTA 10 mM 3 min; for intracellular Ca2+ (iCa2+) increase: 3 min, GPR37-expressing HEK293 cells
# T1 construct: host or cells: HEK293 flip-in cells
# T1 sequence (O15354 27-613): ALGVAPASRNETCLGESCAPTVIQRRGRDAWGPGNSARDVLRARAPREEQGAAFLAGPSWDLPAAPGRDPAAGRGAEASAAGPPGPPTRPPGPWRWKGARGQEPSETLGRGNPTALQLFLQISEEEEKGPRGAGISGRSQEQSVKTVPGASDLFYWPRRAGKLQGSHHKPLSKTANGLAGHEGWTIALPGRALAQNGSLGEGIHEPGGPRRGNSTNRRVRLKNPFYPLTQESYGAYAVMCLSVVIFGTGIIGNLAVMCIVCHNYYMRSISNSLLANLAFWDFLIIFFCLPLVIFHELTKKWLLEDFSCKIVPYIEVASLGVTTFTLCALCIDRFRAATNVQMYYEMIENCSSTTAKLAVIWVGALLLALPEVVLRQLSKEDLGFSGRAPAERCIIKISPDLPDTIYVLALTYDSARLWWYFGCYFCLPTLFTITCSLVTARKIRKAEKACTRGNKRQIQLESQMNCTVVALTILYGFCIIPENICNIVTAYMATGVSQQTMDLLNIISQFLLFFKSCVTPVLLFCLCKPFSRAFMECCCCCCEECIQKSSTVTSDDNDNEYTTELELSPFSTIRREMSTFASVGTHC
# Experimental: (§1) HEK cell culture and transfection. HEK293 flip-in cell line was purchased from Duke Cell Culture Facility. Cells were cultured in high glucose (4.5 g/L) Dulbecco's Modified Eagle's Medium containing 10% (v/v) fetal bovine serum (Gibco). Transfection (2 μg cDNA) was performed with Lonza electroporation (Lonza) at 70% confluency and the transfected cells were cultured in the same growth medium for 48 h before use. The hGPR37-V5 pLenti304 plasmids were obtained from DNASU (Tempe, AZ), and hGPR32, hChemR23 and hALX pcDNA3 plasmids were provided by Dr. Serhan from Harvard Medical School, Boston.
# (§2) Calcium imaging. HEK 293 cells, with or without transfection of Gpr37, GPR32, ChemR23 or ALX1 cDNA, were loaded with 5 μM Fura-2AM (Invitrogen) for 1 hour and then were resuspended in normal external buffer (140 NaCl, 5 KCl, 2 CaCl2, 2 MgCl2, 10 HEPES, in mM, titrated to pH 7.4 with NaOH) or external Ca^2+-free buffer (140 NaCl, 2 MgCl2, 5 EGTA, 10 HEPES, in mM, titrated to pH 7.4 with NaOH). Peritoneal macrophages, collected from WT and Gpr37 KO mice, were loaded with 5 μM […] (Invitrogen) for 1 hour and then were resuspended in normal external buffer. Images of the HEK 293 cells and macrophages with the excitation wavelength of 340 nm and 380 nm were captured with a cooled Digital CMOS camera (ORCA-Flash 4.0, Hamamatsu Photonics K.K, Japan). The ratio of fluorescence intensity of the two wavelengths in each experiment was analyzed using MetaFluor (Molecular Devices). The Shutter speed and wavelength was controlled by Lambda DG-4 system (Sutter instrument Co., Novato, CA). Values from each of the experiments were normalized to the baseline ratio of 340/380 nm.
# In order to investigate how GPR37 regulates intracellular signaling, we conducted Ca^2+ imaging in HEK293 cells that overexpress GPR37. […] Thus, we hypothesized TX14 and SPM may activate the same receptors and elicit similar intracellular responses. We transfected HEK293 cells with human GPR37 cDNA, loaded these cells with Ca^2+ dye Fura-2AM, and stimulated them with TX14 and various SPMs, using ionomycin (2 μM) as a positive control for Ca^2+ influx (FIG. 2A, FIG. 2B, FIG. 2C).
# GPR37 [2] = target: T2, GPR37 (Mus musculus, UniProt Q9QY42); experiment: Ca2+ imaging (Fluo-4AM) in peritoneal macrophages (pMΦ) from WT and Gpr37−/− mice; type: cell-based; details: PTX 1 μg/mL, 16 h; pMΦ
# T2 sequence (Q9QY42 27-600): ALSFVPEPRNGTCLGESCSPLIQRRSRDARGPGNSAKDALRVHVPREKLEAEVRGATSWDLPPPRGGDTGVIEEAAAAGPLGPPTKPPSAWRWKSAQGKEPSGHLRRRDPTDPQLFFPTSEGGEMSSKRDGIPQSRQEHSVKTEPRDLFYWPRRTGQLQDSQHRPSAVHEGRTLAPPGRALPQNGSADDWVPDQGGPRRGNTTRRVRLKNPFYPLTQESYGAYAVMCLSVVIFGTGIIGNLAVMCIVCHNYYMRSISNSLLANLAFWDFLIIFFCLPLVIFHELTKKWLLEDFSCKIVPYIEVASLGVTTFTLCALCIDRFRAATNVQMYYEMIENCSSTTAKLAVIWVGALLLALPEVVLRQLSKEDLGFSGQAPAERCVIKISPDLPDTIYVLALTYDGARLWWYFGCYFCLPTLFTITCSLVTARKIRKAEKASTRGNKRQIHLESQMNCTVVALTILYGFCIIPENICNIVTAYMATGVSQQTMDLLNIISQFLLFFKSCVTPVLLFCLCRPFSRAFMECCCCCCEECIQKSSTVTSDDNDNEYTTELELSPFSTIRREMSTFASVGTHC
# Experimental: (§3) Peritoneal macrophage culture. Peritoneal macrophages were collected by peritoneal lavage with 10 ml warm PBS containing of 1 mM EDTA. Cells were incubated in DMEM supplemented with 10% FBS at 37° C. for 2 h in petri dish and washed with PBS to eliminate non-adherent cells. The adherent cells were used as peritoneal macrophages. Peritoneal macrophages were used after 3 days of culture.
# as §2
# (§4) Next, we conducted GPR37-mediated Ca^2+ imaging in native pMΦ from WT and Gpr37^−/− mice using Fluo-4AM as a Ca^2+ indicator, since this dye works better than Fura-2AM for pMΦ. […] As compared to iCa^2+ increase in GPR37-expressing HEK293 cells, NPD1 trigger a slow-onset but more persistent Ca^2+ response in pMΦ (FIG. 2B and FIG. 2G). A relatively rapid calcium response in HEK293 cells may result from over-expression of GPR37. A sustained iCa^2+ increase in pMΦ may result from the expression of transient receptor potential (TRP) ion channels in these immune cells. It is noteworthy that macrophages express TRPV2 or TRPM2, which are involved in phagocytosis during bacterial infection. […] NPD1-triggered iCa^2+ increase in pMΦ is also Gi-dependent, since PTX blocked this increase (FIG. 2H). For comparison, ATP-evoked iCa^2+ increase was not altered in GPR37-deficient pMΦ (FIG. 2H).
# [3] = system: peritoneal macrophages (pMΦ); experiment: Phagocytosis assay with fluorescence-labeled zymosan particles in peritoneal macrophages; type: cell-based, mouse
# Experimental: as §3
# Phagocytosis assay. The phagocytosis assay was modified from a previously described protocol (Sommer C, and Kress M. NeurosciLett. 2004, 361, 184-187). pHrodo® Red Zymosan Bioparticles (diameter, 3 μm, Thermo scientific, Catalog: P35364) were rinsed and reconstituted in RPMI medium. Particles were centrifuged (1 min at 100 g) onto adherent peritoneal macrophages at a ratio of 10:1 to synchronize binding and internalization. After 30 min incubation at 37° C., non-adherent beads were removed with cold PBS and cells were fixed with 2% formalin. Four optic fields were photographed with epifluorescence microscopy. Quantification of zymosan particles ingested by MΦ was conducted on at least 200 macrophages/condition/well, and triplicates were included for statistical analysis.
# We investigated whether iCa^2+ increases would trigger phagocytosis of pathogens such as zymosan by macrophages. Zymosan is a well-studied pathogen and activates TLR2 to trigger inflammation and inflammatory pain in rodents after intraplantar injection. We tested phagocytosis in pMΦ using fluorescence-labeled zymosan particles.
# GPR37 [4] = experiment: Ca2+ imaging (Fluo-4AM) in peritoneal macrophages (pMΦ) from WT and Gpr37−/− mice; type: cell-based, mouse; details: GPR37-deficient pMΦ vs WT
# Experimental: as §3, §2, §4
# ALX = target: T3, ALX (Homo sapiens, UniProt P25090); experiment: Ca2+ imaging (Fura-2AM) in HEK293 cells transfected with ALX cDNA; type: cell-based; details: HEK293 cells expressing ALX
# T3 construct: host or cells: HEK293 flip-in cells
# T3 sequence (P25090 1-351): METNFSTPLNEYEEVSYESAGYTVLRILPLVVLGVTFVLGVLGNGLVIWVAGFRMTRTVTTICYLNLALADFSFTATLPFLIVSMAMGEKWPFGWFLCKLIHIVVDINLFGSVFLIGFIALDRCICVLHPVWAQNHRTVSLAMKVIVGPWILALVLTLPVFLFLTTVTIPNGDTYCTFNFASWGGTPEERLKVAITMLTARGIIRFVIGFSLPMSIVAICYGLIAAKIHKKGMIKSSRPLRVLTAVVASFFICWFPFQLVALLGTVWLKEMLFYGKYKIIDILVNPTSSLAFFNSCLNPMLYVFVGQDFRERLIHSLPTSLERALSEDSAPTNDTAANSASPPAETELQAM
# Text: (§5) FIG. 10A-FIG. 10C. Characterization of intracellular Ca^2+ changes in HEK293 cells expressing ChemR23, GPR32, and ALX. Ca^2+ imaging with Fura-2AM indicator showing iCa^2+ levels in HEK293 cells transfected with ChemR23 (FIG. 10A), GPR32 (FIG. 10B), and ALX (FIG. 10C) cDNAs. Note that NPD1 fails to elicit iCa^2+ increase in HEK293 cells expressing ChemR23, GPR32, and ALX. […] ATP is included as a positive control. *P<0.05, compared with baseline n=44˜97 cells from 3 cultures. All the data are expressed as mean±s.e.m.
# as §1, §2
# Several SPM receptors have been identified such as ChemR23 for RvE1, GPR32 for RvD1, and ALX for lipoxin A. We transfected human cDNAs of ChemR23, GPR32, and ALX in HEK293 cells and checked Ca^2+ responses following the treatment of each SPM.
# ChemR23 = target: T4, ChemR23 (Homo sapiens, UniProt Q99788); experiment: Ca2+ imaging (Fura-2AM) in HEK293 cells transfected with ChemR23 cDNA; type: cell-based; details: 1 μM; HEK293 cells expressing ChemR23
# T4 construct: host or cells: HEK293 flip-in cells
# T4 sequence (Q99788 1-373): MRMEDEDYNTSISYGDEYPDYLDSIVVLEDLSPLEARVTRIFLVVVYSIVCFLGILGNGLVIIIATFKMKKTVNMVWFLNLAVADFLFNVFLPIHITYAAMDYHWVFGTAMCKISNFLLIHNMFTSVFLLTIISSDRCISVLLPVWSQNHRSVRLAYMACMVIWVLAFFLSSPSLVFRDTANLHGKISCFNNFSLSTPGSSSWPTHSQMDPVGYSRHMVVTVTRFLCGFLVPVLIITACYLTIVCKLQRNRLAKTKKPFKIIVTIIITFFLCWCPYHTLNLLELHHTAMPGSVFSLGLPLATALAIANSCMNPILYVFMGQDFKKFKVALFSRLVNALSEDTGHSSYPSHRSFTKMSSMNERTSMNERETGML
# Text: as §5, §1
# as §2, with “Values from each of the experiments were normalized to the baseline ratio of 340/380 nm.” left out
# GPR32 = target: T5, GPR32 (Homo sapiens, UniProt O75388); experiment: Ca2+ imaging (Fura-2AM) in HEK293 cells transfected with GPR32 cDNA; type: cell-based; details: 1 μM; HEK293 cells expressing GPR32
# T5 construct: host or cells: HEK293 flip-in cells
# Text: as §5, §1
# as §2, with “Values from each of the experiments were normalized to the baseline ratio of 340/380 nm.” left out
# [5] = LY294002 50 μM, U0126 10 μM, PTX 1 μg/mL, BAPTA-AM 10 μM
# T5 sequence (O75388 whole entry): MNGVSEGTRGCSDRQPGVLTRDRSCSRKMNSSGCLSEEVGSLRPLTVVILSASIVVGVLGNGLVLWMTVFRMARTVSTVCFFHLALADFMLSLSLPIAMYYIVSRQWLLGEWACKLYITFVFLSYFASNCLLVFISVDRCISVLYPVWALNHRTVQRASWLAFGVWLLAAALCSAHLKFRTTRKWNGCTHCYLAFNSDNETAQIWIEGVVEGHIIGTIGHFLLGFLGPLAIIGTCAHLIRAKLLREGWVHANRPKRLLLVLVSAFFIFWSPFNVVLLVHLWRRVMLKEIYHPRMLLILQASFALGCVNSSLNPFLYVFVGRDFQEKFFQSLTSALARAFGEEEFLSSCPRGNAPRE
compound,measurement,setting,value
pertussis toxin,effect on NPD1-induced iCa2+ increase,GPR37 [1],completely blocked
same,effect on NPD1-triggered iCa2+ increase,GPR37 [2],blocked
same,effect on NPD1-induced phagocytosis,[3]; [5],inhibited
CC/C=C\C[C@H](O)[C@H](O)/C=C/C=C/C=C\C=C\[C@@H](O)C/C=C\CCC(=O)O [RvD2],intracellular Ca2+ (iCa2+) increase,GPR37 [1]; 100 nM,failed to increase iCa^2+
CC(=O)OCOC(=O)CN(CC(=O)OCOC(C)=O)c1ccccc1OCCOc1ccccc1N(CC(=O)OCOC(C)=O)CC(=O)OCOC(C)=O [BAPTA-AM],effect on NPD1-induced iCa2+ increase,GPR37 [1],inhibited
same,effect on baseline phagocytosis,[3]; BAPTA-AM 10 μM,blocked
same,effect on NPD1-induced phagocytosis,[3]; [5],blocked
Nc1ncnc2c1ncn2[C@@H]1O[C@H](COP(=O)(O)OP(=O)(O)OP(=O)(O)O)[C@@H](O)[C@H]1O [ATP],ATP-evoked iCa2+ increase,GPR37 [4],not altered
C[C@H](CCC(=O)O)C[C@H](C)C[C@H](C)C(=O)/C=C(\O)[C@H](C)C[C@H](C)C/C=C/[C@@H](C)[C@@H](O)[C@@H](C)[C@@H](O)C[C@@H]1CC[C@@](C)([C@H]2CC[C@@](C)([C@@H](C)O)O2)O1 [ionomycin],phagocytosis,"[3]; 2 μM, both WT and Gpr37 KO mice",markedly increased phagocytosis
"Annexin 1: SPM ligand for ALX, from Anaspec (AMVSEFLKQAWFIENEEQEYVQTVK)",Ca2+ response,ALX; 100 nM,fail to evoke Ca^2+ responses
C/C=C(/C)C(=O)O[C@H]1C(C)=C2[C@H]([C@@H]1OC(=O)CCCCCCC)[C@@](C)(OC(C)=O)C[C@H](OC(=O)CCC)[C@@]1(O)[C@H]2OC(=O)[C@@]1(C)O [thapsigargin],effect on NPD1-induced iCa2+ increase,GPR37 [1],inhibited
CC/C=C\C/C=C\C/C=C\C/C=C\C/C=C\CCCC(=O)O [EPA],intracellular Ca2+ (iCa2+) increase,GPR37 [1]; 1 μM,"Neither did the precursors of these SPMs (DHA and EPA), at a much higher concentration (1 μM), evoked calcium responses"
same,Ca2+ response,ChemR23,fail to evoke Ca^2+ responses
same,Ca2+ response,GPR32,fail to evoke Ca^2+ responses
same,Ca2+ response,ALX; 1 μM,fail to evoke Ca^2+ responses
CCCCC[C@H](O)/C=C/C=C\C=C\C=C\[C@@H](O)[C@@H](O)CCCC(=O)O [lipoxin A1],intracellular Ca2+ (iCa2+) increase,GPR37 [1]; 100 nM,failed to increase iCa^2+
same,iCa2+ increase / Ca2+ response,ALX,failed to evoke Ca^2+ responses
N#CC(=C(/N)Sc1ccccc1N)/C(C#N)=C(\N)Sc1ccccc1N [U0126],effect on NPD1-induced phagocytosis,[3],inhibited
O=C(O)CN(CCOCCOCCN(CC(=O)O)CC(=O)O)CC(=O)O [EGTA],effect on NPD1-induced iCa2+ increase,GPR37 [1],inhibited
